Measurements from paper PMC12254355 (Nature Communications, 2025).
Ends that are not written are not given here.

Key:
P. aeruginosa PAO1 = settings: PAO1, 24 h
[1] = tested on: E. faecium ATCC 700221 - VRE; settings: ATCC 700221, 24 h
HEK293T cells = settings: for CC50 vs HEK293T cells (source data of Figure 4a): 24 h
human red blood cells = settings: pH 7.4
A. baumannii ATCC 19606 = settings: ATCC 19606, 24 h
E. coli ATCC 11775 = settings: ATCC 11775, 24 h
E. coli AIC221 = settings: AIC221, 24 h
P. aeruginosa PA14 = settings: PA14, 24 h

Compound | Minimal Inhibitory Concentration, P. aeruginosa PAO1 (-) (P. aeruginosa PAO1) [µmol/L] | Minimal Inhibitory Concentration, E. faecium ATCC 700221 - VRE (+) [1] [µmol/L] | SIcytotoxicity (HEK293T cells) | HC50 (human red blood cells) | Minimal Inhibitory Concentration, A. baumannii ATCC 19606 (-) (A. baumannii ATCC 19606) [µmol/L] | Minimal Inhibitory Concentration, E. coli ATCC 11775 (-) (E. coli ATCC 11775) [µmol/L] | Minimal Inhibitory Concentration, E. coli AIC221 (-) (E. coli AIC221) [µmol/L] | Minimal Inhibitory Concentration, P. aeruginosa PA14 (-) (P. aeruginosa PA14) [µmol/L] | CC50 vs HEK293T cells (HEK293T cells) [µM] | CC50 vs HEK293T cells (source data of Figure 4a) (HEK293T cells) [µM]
CC(C)C[C@H](NC(=O)[C@H](Cc1ccccc1)NC(=O)CNC(=O)[C@H](CCCNC(=N)N)NC(=O)[C@H](CCCNC(=N)N)NC(=O)[C@H](CCC(N)=O)NC(=O)[C@H](Cc1c[nH]c2ccccc12)NC(=O)[C@H](CC(C)C)NC(=O)[C@@H]1CCCN1C(=O)[C@H](CO)NC(=O)[C@H](C)NC(=O)[C@H](CCCNC(=N)N)NC(=O)CNC(=O)[C@H](CCCNC(=N)N)NC(=O)[C@@H](N)CCCCN)C(=O)N[C@@H](CO)C(=O)N[C@@H](CCCCN)C(=O)N[C@@H](CC(C)C)C(=O)N[C@@H](CCCCN)C(=O)N[C@@H](C)C(=O)N[C@@H](CCCNC(=N)N)C(=O)N[C@@H](C)C(=O)N[C@@H](CCCCN)C(=O)N[C@@H](CCCNC(=N)N)C(=O)N[C@@H](CC(N)=O)C(=O)NCC(=O)N[C@@H](C)C(=O)N[C@@H](Cc1ccccc1)C(=O)N[C@@H](Cc1c[nH]cn1)C(=O)N[C@@H](CC(C)C)C(=O)N1CCC[C@H]1C(=O)N[C@@H](CCCNC(=N)N)C(=O)O [Conoserver-7] | 64 | 32 | 2.5 | 1.085e+083 | – | – | – | – | – | –
ARKFKWGKLFSAGKKLLKKAKKLSKNK [Arachnoserver-11] | 8 | 8 | 2.2 | 1118.0 | 64 | 32 | 4 | 8 | 9 | 8.722
FIKKLWRSKLAKKLRAKGRELLK [UniprotKB-17] | 8 | 16 | 3.9 | 4.224e+042 | 32 | 16 | 16 | 16 | – | 30.97
FLKKIWRSKLVKRL [UniprotKB-9] | – | – | 1.3 | 219457.0 | – | – | – | 16 | 20 | 20.18
GKWLISSLVAKHL [UniprotKB-6] | – | – | 0.3 | 686.0 | – | – | – | – | 19 | 19.46
KKQIRLYLLKYYGKKSSSKSVRKIVISK [Arachnoserver-20] | – | 32 | 2.8 | 896.7 | – | – | – | – | – | –
KKWRELSRLSRVLQIL [Conoserver-14] | 64 | 32 | 7.3 | 1826.0 | 16 | 16 | 8 | – | – | –
KLHGLLTRRSLKNFWKRNLYLR [Conoserver-6] | 16 | 32 | 7.9 | 66.3 | 32 | 64 | 4 | 32 | – | 31.74
KLWNSKLARKIRTKGLKYVKNFAK [UniprotKB-3] | – | 32 | 1.5 | 8.23e+034 | – | – | – | – | – | 11.61
KQKYLIKRSRAKMQNHKLFKLTKR [Conoserver-16] | – | 64 | 1.5 | 1.085e+083 | – | – | – | – | – | –
KRKGYLRLVPEERIWQKGLWWLRRLETDSDKLQK [ISOB-3] | – | – | – | 1.085e+083 | – | – | – | – | – | –
KRLKGFAKKLWNSKLARKIRTKGLKYVKNFAK [UniprotKB-7] | – | 8 | 3.7 | 207.9 | – | – | – | – | – | 14.78
KRRRASPLWKRRRFLSMLKARAK [Conoserver-2] | 64 | 32 | 3.6 | 1570.0 | – | – | – | – | – | –
KRRRASPLWKRRRFLSMLKARAK [UniprotKB-10] | – | 32 | 1.3 | 627.2 | – | – | – | – | – | 43.12
KWGKLFSAGKKLLKKAKKL [Arachnoserver-4] | 8 | 16 | 2.4 | 1.085e+083 | 64 | 32 | 16 | 16 | 20 | 19.57
